In paper PMC6877102, “A squalamine derivative, NV669, as a novel PTP1B inhibitor: in vitro and in vivo effects on pancreatic and hepatic tumor growth” (Oncotarget, 2019):

Molecular target: T1, Protein Tyrosine Phosphatase 1B (PTP1B) (Homo sapiens, UniProt P18031)
T1 construct: gene PTPN1; residues 1-322, C-terminal deletion
T1 sequence (P18031 1-322): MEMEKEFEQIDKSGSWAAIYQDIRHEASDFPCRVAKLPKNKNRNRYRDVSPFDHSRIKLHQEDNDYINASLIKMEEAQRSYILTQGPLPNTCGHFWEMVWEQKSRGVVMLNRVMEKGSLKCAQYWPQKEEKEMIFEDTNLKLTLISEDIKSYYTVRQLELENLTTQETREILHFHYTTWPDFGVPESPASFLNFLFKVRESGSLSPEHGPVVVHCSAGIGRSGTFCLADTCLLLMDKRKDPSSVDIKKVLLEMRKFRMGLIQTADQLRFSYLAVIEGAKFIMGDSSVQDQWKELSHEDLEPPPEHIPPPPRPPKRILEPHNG
Test: Malachite green phosphate release assay with IR5 phosphopeptide on recombinant human PTP1B
Type: biochemical

Compound	Malachite green phosphate release assay with IR5 phosphopeptide on recombinant h
CC(C)CCC[C@@H](C)[C@H]1CCC2C3C[C@@H](O)C4=C[C@@H](NCCCNCCCCNCCCN)CC[C@]4(C)C3CC[C@@]21C (some centres unmarked) [NV669]	we found that NV669 blocked significantly in vitro PTP1B activity in a dose- and time-dependent manner
CC(C)CCC[C@@H](C)[C@H]1CC[C@H]2[C@@H]3C[C@@H](NCCCNCCCCNCCCN)[C@H]4C[C@@H](O)CC[C@]4(C)[C@H]3CC[C@]12C [claramine]	Like claramine (a PTP1B inhibitor used here as positive control), we found that NV669 blocked significantly in vitro PTP1B activity
